The text below walks through data of patent US20040186166A1, “Cannabinoid analogs as peroxisome proliferator activated nuclear receptor gamma activators” (priority 2002, published 2004).

The target of data set [1] is T1, PPARα (Mus musculus, UniProt P23204).
T1 construct: expressed in transfected cells; host or cells: HEK293 / HEK293T
T1 sequence (P23204 1-468): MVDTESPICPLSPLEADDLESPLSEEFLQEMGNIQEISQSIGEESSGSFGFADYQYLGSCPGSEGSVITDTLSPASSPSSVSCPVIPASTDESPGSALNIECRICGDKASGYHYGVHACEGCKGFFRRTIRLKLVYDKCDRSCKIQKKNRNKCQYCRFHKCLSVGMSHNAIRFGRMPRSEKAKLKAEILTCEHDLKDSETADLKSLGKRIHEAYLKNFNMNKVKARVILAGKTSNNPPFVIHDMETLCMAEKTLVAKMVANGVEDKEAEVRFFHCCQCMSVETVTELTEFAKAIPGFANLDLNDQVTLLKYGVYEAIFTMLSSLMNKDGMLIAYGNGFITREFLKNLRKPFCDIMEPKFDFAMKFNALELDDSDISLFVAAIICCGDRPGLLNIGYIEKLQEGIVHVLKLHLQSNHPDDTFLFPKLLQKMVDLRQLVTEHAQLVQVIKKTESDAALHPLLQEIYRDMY
In words: Partial protease (trypsin) digestion assay, PPARα. In kind it is binding. The note with it: 2, 20 and 100 μM AJA. How it is done:
Partial protease digestion was carried out as described by Leng et. al. (J Steroid Biochem Mol Biol 46:643-61, 1993). PPAR proteins were made by in vitro transcription/translation reactions in reticulocyte lysate according to the manufacture's instructions (Promega). AJA, GW347845, or vehicle alone was incubated with the 35S-labeled PPARs at room temperature for one hour before trypsin digestion. Reactions were stopped by boiling in SDS-containing sample buffer, and lysates were subjected to SDS-PAGE and autoradiography.
The PPAR proteins were synthesized and labeled with ^35S-methionine in reticulocyte lysate and incubated with AJA, GW347845, or vehicle alone at room temperature for one hour before trypsin digestion. The reactions were terminated by boiling in SDS-containing protein sample buffer. The proteolytic patterns of PPAR proteins were then analyzed by SDS-PAGE and autoradiography, and compared with vehicle-treated control samples.
The AJA concentrations required to protect PPARγ from trypsin digestion were further measured.

Data set [2] deals with T1, PPARα. The data set is described as follows: PPRE-TK-LUC reporter transient transfection, PPARα. The data set is classed as cell-based. Particulars: 1 to 20 μM AJA. The method, then: For PPARγ activation assay, HEK293 cells were plated in 12-well cell culture plates and maintained in Dulbecco's modified Eagle's medium (DMEM) supplemented with 10% fetal bovine serum (FBS) at 37° C. under 5% CO2. Cells were changed to phenol red-free DMEM supplemented with 10% charcoal-stripped fetal bovine serum 3 hours before transfection by a standard calcium-phosphate precipitation method. Twelve hours after transfection, the cells were washed with phosphate-buffered saline (PBS) and fed again with fresh medium containing the indicated concentrations of compounds. After 36 hours, cells were harvested for β-galactosidase and luciferase activities as described previously (Li et al., Proc Natl Acad Sci USA 94:8479-84, 1997). The average normalized luciferase activity was determined via triplicate experiments. For IL-8 promoter assay, HeLa cells were maintained and transfected in the same way as described above. After transfection, cells were recovered for 4 hours before treatment with AJA, GW347845, or solvent. After 3-4 hours, cells were treated with or without 25 nM of phorbol myristate acetate (PMA) for 24 hours.
In an effort to confirm that AJA activates PPARγ selectively, the ability of AJA to activate PPARα and PPARδ was analyzed in a similar transient transfection assay.

The test system of data set [3] is 3T3 L1 fibroblasts. The data set is described as follows: Adipocyte differentiation assay, Oil Red O staining. The data set is classed as cell-based. Particulars: 20 μM AJA, 10 days, 10 μg/ml insulin. The method, then:
The adipocyte differentiation assay was performed as described by Mukherjee et. al. (Mol Endocrinol 14: 1425-33, 2000). The 3T3 L1 cells (American Type Culture Collection) were cultured in DMEM media supplemented with 10% calf serum. Two days after reaching confluence, cells were treated with AJA, GW347845, or vehicle (0.1% DMSO) in the presence of 10 μg/ml insulin every other day. After 10 days of treatment with AJA or 7 days with GW347845 at confluence, cells were fixed and stained with Oil Red O (Sigma). For RT-PCR, total cellular RNAs were isolated by TRIzol (Gibco). Reverse transcriptase polymerase chain reaction (RT-PCR) was performed using the superscript first-strand synthesis kit (Invitrogen). After first-strand cDNA was synthesized by use of oligo (dT), cDNA was amplified by PCR. […]
3T3 L1 fibroblasts cells were cultured in DMEM supplemented with 10% calf serum. […] The cells were treated for 10 days with AJA, or 7 days with GW347845, and lipid accumulation in cells was assessed by Oil Red O staining.

For data set [4] the following is noted: IL-1β and TNFα injected into subcutaneous air pouches, mice; cited from earlier work.
The conditions of data set [5]: adjuvant-induced poly-arthritis, rats; cited from earlier work.
The conditions of data set [6]: animal models; cited from earlier work.

As to `CCCCCCC(C)(C)c1cc(O)c2c(c1)OC(C)(C)[C@@H]1CC=C(C(=O)O)C[C@@H]21` [AJA, dimethylheptyl-THC-11-oic acid], the “proteinase sensitivity of PPARα” value in data set [1] is reported as “did not affect the proteinase sensitivity”. For the same molecule, the “activation of PPARα” value in data set [2] is reported as “no further activation was observed”. The “lipid accumulation, Oil Red O staining” value in data set [3] is on record as “dramatic increase in lipid droplet staining”. Besides, the acute inflammation entry in data set [4] was “suppress”. The chronic joint inflammation entry in data set [5] is recorded as “suppress”. Besides, in data set [6], the psychoactivity entry is “does not show the typical psychoactive effect”.
